Experiment [1] has as its target T1, Tissue-type plasminogen activator (Homo sapiens, UniProt P00750). The experiment can be described thus: Ability to inhibit tissue plasminogen activator (quadratech) and S-2444 as substrate at concentration of 1 mM.
Target sequence in this assay (P00750 36-562 limits assumed): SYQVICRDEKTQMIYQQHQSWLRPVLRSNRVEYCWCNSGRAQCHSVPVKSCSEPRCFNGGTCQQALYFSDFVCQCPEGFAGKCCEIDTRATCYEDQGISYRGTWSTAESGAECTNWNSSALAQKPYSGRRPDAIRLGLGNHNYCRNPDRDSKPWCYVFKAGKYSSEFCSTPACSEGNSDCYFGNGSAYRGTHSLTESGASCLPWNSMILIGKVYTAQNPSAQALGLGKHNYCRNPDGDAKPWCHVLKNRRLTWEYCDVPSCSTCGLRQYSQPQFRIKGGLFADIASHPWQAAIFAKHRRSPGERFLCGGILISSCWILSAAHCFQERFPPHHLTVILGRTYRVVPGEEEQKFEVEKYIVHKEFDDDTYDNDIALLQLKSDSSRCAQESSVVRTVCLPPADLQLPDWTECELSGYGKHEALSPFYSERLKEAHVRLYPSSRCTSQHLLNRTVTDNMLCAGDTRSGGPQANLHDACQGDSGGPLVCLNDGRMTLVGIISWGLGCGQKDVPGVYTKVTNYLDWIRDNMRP
For experiment [2], the target named is T2, Plasminogen (Homo sapiens, UniProt P00747). Put plainly: In vitro inhibition of human plasmin. Also noted: concentration or dose not given beside the values. Conditions: concentration not given here.
The target of experiment [3] is Urokinase-type plasminogen activator (Homo sapiens, UniProt P00749). Put plainly: In vitro inhibition of human urokinase Plasminogen Activator.
The target in experiment [4] is T1, Tissue-type plasminogen activator. The experiment can be described thus: Ability to inhibit tissue plasminogen activator (quadratech) and S-2444 as substrate.
Target sequence in this assay (P00750 whole entry): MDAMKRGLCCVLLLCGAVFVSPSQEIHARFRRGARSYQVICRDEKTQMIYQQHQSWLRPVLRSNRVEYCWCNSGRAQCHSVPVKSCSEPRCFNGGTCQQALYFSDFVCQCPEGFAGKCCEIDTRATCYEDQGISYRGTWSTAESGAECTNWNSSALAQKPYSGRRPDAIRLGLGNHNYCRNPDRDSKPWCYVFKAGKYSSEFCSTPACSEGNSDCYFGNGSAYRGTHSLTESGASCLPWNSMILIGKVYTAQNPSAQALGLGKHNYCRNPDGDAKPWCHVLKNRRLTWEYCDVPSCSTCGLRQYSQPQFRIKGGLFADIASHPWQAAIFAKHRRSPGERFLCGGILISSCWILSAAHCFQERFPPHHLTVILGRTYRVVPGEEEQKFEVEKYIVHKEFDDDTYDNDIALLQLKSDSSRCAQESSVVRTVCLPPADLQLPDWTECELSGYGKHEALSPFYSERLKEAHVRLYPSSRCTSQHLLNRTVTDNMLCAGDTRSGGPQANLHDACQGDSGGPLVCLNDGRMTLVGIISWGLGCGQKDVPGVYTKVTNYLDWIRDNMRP
Experiment [5] addresses T2, Plasminogen. Put plainly: Ability to inhibit plasmin using human plasmin (quadratech) and Chromozym-PL (boehringer) as substrate.
Experiment [6] deals with T2, Plasminogen. The experiment can be described thus: Ability to inhibit plasmin using human plasmin (quadratech) and Chromozym-PL (boehringer) as substrate at concentration of 100 uM.
Experiment [7] deals with T1, Tissue-type plasminogen activator. The experiment can be described thus: Ability to inhibit tissue plasminogen activator (quadratech) and S-2444 as substrate at concentration of 300 uM.
Target sequence in this assay (P00750 36-562 limits assumed): as the sequence (P00750 36-562 limits assumed) above
Experiment [8] addresses T2, Plasminogen. Put plainly: Ability to inhibit human plasmin using Chromozym-PL as substrate at concentration of 1 uM.
Experiment [9] addresses T1, Tissue-type plasminogen activator. The experiment can be described thus: Ability to inhibit human tissue plasminogen activator stimulator at concentration of 1 uM.
Target sequence in this assay (P00750 36-562 limits assumed): as above

T2 sequence (P00747 97-580 limits assumed): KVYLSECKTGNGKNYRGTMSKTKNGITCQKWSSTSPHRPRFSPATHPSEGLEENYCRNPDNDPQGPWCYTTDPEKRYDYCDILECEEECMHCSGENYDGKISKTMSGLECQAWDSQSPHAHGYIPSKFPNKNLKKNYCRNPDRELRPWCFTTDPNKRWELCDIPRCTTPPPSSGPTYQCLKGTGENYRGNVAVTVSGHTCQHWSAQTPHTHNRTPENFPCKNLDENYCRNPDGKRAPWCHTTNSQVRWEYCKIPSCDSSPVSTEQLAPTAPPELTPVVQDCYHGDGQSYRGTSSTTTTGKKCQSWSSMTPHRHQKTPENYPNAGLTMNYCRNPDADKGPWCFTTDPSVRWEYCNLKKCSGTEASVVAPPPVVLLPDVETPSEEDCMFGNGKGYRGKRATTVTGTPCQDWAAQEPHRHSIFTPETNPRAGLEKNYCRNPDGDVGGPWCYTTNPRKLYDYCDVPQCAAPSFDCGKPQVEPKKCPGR
T2 sequence (P00747 581-810 limits assumed): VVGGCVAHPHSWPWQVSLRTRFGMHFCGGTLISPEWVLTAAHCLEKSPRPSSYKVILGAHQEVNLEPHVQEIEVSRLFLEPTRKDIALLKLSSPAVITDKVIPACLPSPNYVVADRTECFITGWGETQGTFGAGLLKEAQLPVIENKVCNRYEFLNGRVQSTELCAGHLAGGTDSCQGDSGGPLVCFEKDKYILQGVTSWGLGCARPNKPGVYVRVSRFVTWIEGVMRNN

Take `N=C(N)Nc1ncc(Cl)cc1-c1ccccc1`: the inhibition (in [1]; against Plasminogen [2]) was below 50% throughout. For the same molecule, the affinity in experiment [3], expressed as Ki, was 166 µM.
For `N=C(N)Nc1ncc(Cl)cc1C#Cc1ccccc1`, the figures for the Ki (in experiment [4]; on Plasminogen [5]) were 65.9 µM and 218 µM, respectively.
As to `CNC(=O)/C=C/c1cc(Cl)cnc1N=C(N)N`, the inhibition (in experiment [1]; at Plasminogen [2]) was below 50% each time. Further, the Ki (usually the equilibrium dissociation constant of an inhibitor or competing ligand from its target) in experiment [3] turned out to be 1.28 µM.
The molecule `N=C(N)Nc1ncc(Cl)cc1/C=C/C1CCCCC1` registered a Ki in experiment [4] of 71.5 µM. Also, on Plasminogen [2], the inhibition (commonly the drop in the measured response relative to a control, in per cent) was below 50%.
Consider `N=C(N)Nc1ncc(Cl)cc1/C=C/c1cccc(C(=O)O)c1`, for which the inhibition against Plasminogen [6] is below 50%.
Take `N=C(N)Nc1ncc(Cl)cc1/C=C/c1ccccn1`: the Ki stood at 258 µM in [4] and 1.6 µM in experiment [3]. The inhibition at Plasminogen [2] is below 50%.
As for `N=C(N)Nc1ncc(Cl)cc1/C=C/C(=O)N1CCOCC1`, the inhibition (in experiment [1]; at Plasminogen [2]) was below 50% in each case. This molecule also gave a Ki in experiment [3] of 2.1 µM.
For `N=C(N)Nc1ncc(Cl)cc1OCC(=O)NCc1ccccc1`, the inhibition (in experiment [1]; on Plasminogen [2]) was below 50% in each case.
Take `N=C(N)Nc1ncc(Cl)cc1OCC(=O)O`: the inhibition (in [1]; at Plasminogen [2]) was below 50% in each case.
Take `N=C(N)Nc1ncc(Cl)cc1Oc1ccccc1`: the results for the Ki in experiment [4] and in [3] were 342 µM and 2.13 µM, respectively. The same molecule returned an inhibition against Plasminogen [2] below 50%.
With `COCCOc1cc(Cl)cnc1N=C(N)N`, the inhibition (in [1]; at Plasminogen [2]) was below 50% each time. The molecule further yielded a Ki in [3] of 16.4 µM.
Consider `N=C(N)Nc1ncc(Cl)cc1/C=C/C(=O)NCc1ccccc1`, for which the inhibition (in [1]; at Plasminogen [2]) was below 50% in each case. The same molecule showed an inhibition constant (Ki) in experiment [3] of 0.77 µM.
On to `N=C(N)Nc1ncc(Cl)cc1/C=C/c1ccc2c(c1)OCO2`, for which the figures for the inhibition (against Plasminogen [2]; in experiment [7]) were below 50% and 50%, respectively. The molecule also showed a Ki in experiment [3] of 0.49 µM.
The molecule `N=C(N)Nc1ncc(Cl)cc1/C=C/c1ccccc1` came in with a Ki in experiment [4] of 53.8 µM. This molecule had an inhibition on Plasminogen [2] below 50%.
As for `N=C(N)Nc1ncc(Cl)cc1OCc1ccccc1`, the inhibition (in [1]; against Plasminogen [2]) was below 50% each time. Also, affinity in experiment [3] was put at a Ki of 0.92 µM.
The molecule `NC(N)=Nc1ncc(Cl)cc1OCC(=O)NCc1ccccc1` registered a Ki in experiment [3] of 16.1 µM.
On Plasminogen [8], `N=C(N)Nc1ncc(Cl)cc1/C=C/C(=O)O` displayed a Ki of 279 µM. The inhibition in [9] is below 50%.
Consider `N=C(N)Nc1ncc(Cl)cc1CCC(=O)O`, for which the inhibition (in experiment [1]; on Plasminogen [2]) was below 50% each time.
For `CN(Cc1ccccc1)C(=O)/C=C/c1cc(Cl)cnc1N=C(N)N`, the inhibition (in experiment [1]; against Plasminogen [2]) was below 50% throughout. Besides, in [3], the affinity corresponds to a Ki of 2 µM.
Regarding `NC(N)=Nc1ncc(Cl)cc1/C=C/c1cccc(C(=O)O)c1`, the Ki in [4] came out at 52 µM; in [3], 0.17 µM.
On to `COc1ccc(/C=C/c2cc(Cl)cnc2N=C(N)N)cc1`, for which the Ki in [4] is 60.1 µM; at Plasminogen [5], 42.5 µM; in experiment [3] it was 0.69 µM.

The record behind these values is ChEMBL document CHEMBL1135370, “Selective urokinase-type plasminogen activator (uPA) inhibitors. Part 2: (3-Substituted-5-halo-2-pyridinyl)guanidines” (Bioorg Med Chem Lett, 2002).
